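All cell lines were grown in 96-well plates and treated with compound for 48 hours. GI50 = concentration required for 50% inhibition of growth. TGI denotes the concentration required for complete inhibition of growth.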
Key:
Test in all cases: inhibition of tumour cell growth, NCI panel, 48 h
M14 melanoma = system: M14 melanoma
SK-MEL-5 melanoma = system: SK-MEL-5 melanoma
IGROV1 ovarian = system: IGROV1 ovarian
HCT-15 colon = system: HCT-15 colon
TK-10 renal = system: TK-10 renal
ACHN renal = system: ACHN renal
COLO 205 colon = system: COLO 205 colon
U251 CNS = system: U251 CNS
SK-OV-3 ovarian = system: SK-OV-3 ovarian
MALME-3M melanoma = system: MALME-3M melanoma

Compound	GI50 (M14 melanoma) [µM]	TGI (M14 melanoma) [µM]	GI50 (SK-MEL-5 melanoma) [µM]	TGI (SK-MEL-5 melanoma) [µM]	GI50 (IGROV1 ovarian) [µM]	TGI (IGROV1 ovarian) [µM]	GI50 (HCT-15 colon) [µM]	TGI (HCT-15 colon) [µM]	GI50 (TK-10 renal) [µM]	TGI (TK-10 renal) [µM]	GI50 (ACHN renal) [µM]	TGI (ACHN renal) [µM]	GI50 (COLO 205 colon) [µM]	TGI (COLO 205 colon) [µM]	GI50 (U251 CNS) [µM]	TGI (U251 CNS) [µM]	GI50 (SK-OV-3 ovarian) [µM]	TGI (SK-OV-3 ovarian) [µM]	GI50 (MALME-3M melanoma) [µM]	TGI (MALME-3M melanoma) [µM]
CN1c2ccccc2C(C)(C)C12C=Cc1cc(O)ccc1O2 (configuration not stated)	2.35	5.52	2.38	9.94	4.69	14.9	3.41	14	2.94	9.63	7.2	22.9	1.9	3.88	3.18	10.9	3.41	8.81		
N#CSCC1CC(O)(c2ccccc2)CC(c2ccc(F)cc2)O1 (configuration not stated)	1.62	3.13	1.74	3.26	3.19	12	1.76	4.89	2.07	5.77	2.1	6.43	2.02	4.25	1.7	3.13	4.67	15.7	2.14	6.44
COCCCNC(=O)CC(=O)NCCCOC		> 100		> 100		> 100		> 100		> 100		> 100		> 100		> 100				> 100
O=C(NCc1ccc(Cn2c(=O)sn(-c3ccccc3)c2=O)cc1)OCc1ccc2c(Br)cc(Br)c(O)c2n1	0.412	1.51	1.44	2.75	0.428	1.58	0.222	0.572	0.404	1.39	0.281	0.927	0.399	1.79	1.52	3	3.61	14	1.38	2.78
COc1ccc(Nc2c3ccccc3nc3ccccc23)cc1	0.735	13.6	1.1	4.2	0.629	8.72	1.08	15.5	2.78	13.7	1.28	5.68	0.52	1.85	2.55	14.1	3.66	16.2	1.83	9.05
O=C(Cc1nc2ccccc2s1)Nc1cccc(C(F)(F)F)c1		31.2		32.2		25.9		30.3		36.1		28.2		30.7				44.3		30.8
O=C(Nc1ccccc1)NS(=O)(=O)c1ccc(-n2nc3c(c2-c2ccc(Cl)cc2)Cc2ccccc2-3)cc1	34.5	> 100	22	69.8	28.5	> 100	18.5	69.7	18.3	74.4	12.9	71.8	23.5	64.9	22.3	63.2	53.9	> 100		
CS(=O)(=O)N(N(CCCl)S(=O)(=O)c1ccccc1)S(C)(=O)=O		> 100		> 100				> 100		> 100		> 100		> 100		> 100				> 100
CN(C)CCNC(=O)c1cccc2c1nc(-c1ccccc1)c1ccccc12		4.34		5.52		18.2		13.1		14.4		13.4		15.3		18.4		19.6		
O=CC[C@H]1CCc2ccccc2C12CCC(=O)CC2		> 100		> 100		> 100		> 100				> 100		> 100				> 100		> 100
COc1cc2c3c(c1OC)-c1c(ccc4c1OCO4)CC3(C#N)N(C(=O)c1ccccc1)CC2 (configuration not stated)		> 100		> 100		> 100		> 100		> 100				> 100		> 100		> 100		> 100
CC1(C)Cc2cc(C(=O)O)c3c(c2C1=O)COCC3		> 100		> 100		> 100		> 100				> 100		> 100		> 100		> 100		> 100
CCOC(=O)C1=C(C)N(c2ccc(C)cc2)C2=C(C(=O)N(c3ccccc3)C2c2ccccc2)C1c1ccccc1 (configuration not stated)		> 25		> 25		> 25		> 25		> 25		> 25		> 25		> 25				> 25
COc1ccc(/C=c2\sc3n(c2=O)C(N)=C(C#N)C(c2ccc(OC)cc2)C=3c2nc3ccccc3[nH]2)cc1 (configuration not stated)		> 100		36.8		> 100		59.2		66.5		> 100		> 100		34.4				42.2
CCCCCCCCCc1cccc(N2C(N)=NC(N)=NC2(C)C)c1		1.53						0.169		1.48		1.06		2.38		0.62		> 33.1		8.22
CC(C)(C)c1cc2c3c(c1)C(C(F)(F)F)(C(F)(F)F)O[Te]3(C)OC2(C(F)(F)F)C(F)(F)F		> 100				> 100		> 100		> 100		> 100		> 100		> 100		> 100		> 100
COc1ccc(Cn2cc3c(c2-c2ccc(OC)cc2)CCc2cnoc2-3)cc1	0.404	> 33.2	0.343	4.71	0.775	> 100	0.506	> 100	0.616	> 100	0.892	> 100	0.296	0.815	0.444	> 100	0.571	> 100		

Compound	GI50 (M14 melanoma) [µM]	TGI (M14 melanoma) [µM]	GI50 (SK-MEL-5 melanoma) [µM]	TGI (SK-MEL-5 melanoma) [µM]	GI50 (IGROV1 ovarian) [µM]	TGI (IGROV1 ovarian) [µM]	GI50 (HCT-15 colon) [µM]	TGI (HCT-15 colon) [µM]	GI50 (TK-10 renal) [µM]	TGI (TK-10 renal) [µM]	GI50 (ACHN renal) [µM]	TGI (ACHN renal) [µM]	GI50 (COLO 205 colon) [µM]	TGI (COLO 205 colon) [µM]	GI50 (U251 CNS) [µM]	TGI (U251 CNS) [µM]	GI50 (SK-OV-3 ovarian) [µM]	TGI (SK-OV-3 ovarian) [µM]	GI50 (MALME-3M melanoma) [µM]	TGI (MALME-3M melanoma) [µM]
CC[C@@H](C(=O)[C@@H](C)[C@@H](O)[C@H](C)[C@@H]1O[C@@H]([C@@H](CC)C(=O)N(CC)CC)CC[C@@H]1C)C1O[C@]2(C=CC(=O)[C@]3(CC[C@@](C)([C@H]4CC[C@](O)(CC)[C@H](C)O4)O3)O2)[C@H](C)C[C@@H]1C (some centres not stated)			1.69	3.09	2.31	7.71	2.02	4.51	3.49	> 100	2.16	5.19	2.35	5.4	3.1	13.4	3.87	> 100	1.93	4.9
O=C(CCC(=O)C(C(=O)c1ccccc1)c1ccccc1)Nc1cccc(C(F)(F)F)c1 (configuration not stated)		> 100				> 100		> 100		> 100		> 100		> 100		> 100		> 100		> 100
C[C@@H](CO)[C@@H]1CCC=C2CC[C@]3(C)[C@H](CC[C@@H]4[C@@]5(C)CCCNC(C)(C)[C@@H]5CC[C@]43C)[C@H]21	2.31	5.13	1.77	3.18	1.78	3.41	1.49	2.99	8.36	24.8	2.45	6.52			1.84	3.46	12.8	30.8	1.71	3.36
O=[N+]([O-])c1cccc(-c2oc(C=Nc3ccccc3)c([N+](=O)[O-])c2-c2cccc([N+](=O)[O-])c2)c1		> 100		> 100		> 100				> 100		> 100		> 100		> 100		> 100		> 100
Cc1cc(N(CCNc2ccnc3cc(Cl)ccc23)Cc2ccco2)nc(Cl)n1	1.6	3.01	1.72	3.13			1.64	3.19	1.81	3.21	1.65	3.02	1.71	3.3	1.62	3.01	1.66	3.13	1.78	3.33
CCNC(=O)c1cc2c(-c3cc(C(C)(C)O)ccc3Oc3c(C)cc(F)cc3C)cn(C)c(=O)c2[nH]1	1.46	14.2	2.09	6.89	1.39	11.2	1.84	14.2	0.298	10.6	2.15	12.1	0.507	2.84	2.09	16.7			2.15	15.2
CCCCCCCCCCCCCP(=O)(O)OCC		> 100		> 100		> 100		> 100		> 100		> 100		> 100		> 100				> 100
O=[N+]([O-])c1c(Br)sc(Br)c1[N+](=O)[O-]			4.88	17.2	1.98	5.38	1.59	4.48	2.31	6.18	1.64	3.19	1.57	3.38	2.15	5.46	14	27		
NCCCNCCCCN(CCCN)/[N+]([O-])=N\O		> 100		> 100		> 100		> 100				> 100		> 100						> 100
Cc1cc(C)nc(NS(=O)(=O)c2ccc(Nc3c4ccc(Cl)cc4nc4c(C(=O)Nc5ccc(S(N)(=O)=O)cc5)cccc34)cc2)n1		34.7						36.2		89.6		> 100				28.7		30.5		> 100
C=C1CCC2C(C)(C)CCC[C@]2(C)[C@H]1CO (some centres not stated)	71.8	> 100	68.2	> 100	> 100	> 100	56.9	> 100	> 100	> 100	97.9	> 100	42.1	> 100	49	> 100				
CCC1CCc2nc3sc(C(=O)Nc4cccc(F)c4)c(N)c3cc2C1 (configuration not stated)	0.402	> 100	0.386	> 100	> 100	> 100	0.428	> 100	> 100	> 100	> 100	> 100	51.8	> 100	> 100	> 100	> 100	> 100		
CC(C)CCN=C(N)c1ccc(N2CCN(c3ccc(C(N)=NCCC(C)C)cc3)CC2)cc1	11.7	29.6	3.06	7.97	6.27	40.3	37.6	> 100	9.08	89.9	56.8	> 100	8.9	> 100	13.9	32.9	4.45	25.5		
S=c1cc(S)sc2c1c(=S)sc1nc3ccccn3c(=S)c12		> 100		> 100				> 100		> 100		> 100				> 100				> 100
COc1ccc2c(c1)C(=O)c1c-2c(Nc2ccc(Cl)cc2)nc2ccccc12	31	> 100	2.84	13.2	10.7	52.1	42.3	> 100	14.3	34.3	4.23	16.3	34.8	> 100	5.51	18.4			11	42.4
Fc1ccccc1C1CC(c2ccc3ccccc3c2)=Nc2ccccc2S1 (configuration not stated)		> 100				> 100				> 100		> 100		> 100		> 100		> 100		> 100
CCC(=O)c1c(NOC2OC(COC(C)=O)C(OC(C)=O)C(OC(C)=O)C2OC(C)=O)nc(OC)n(C)c1=O (configuration not stated)		> 100		> 100		> 100		> 100		> 100		> 100		> 100		> 100				

From PubChem BioAssay (NCI)
